Literature values as cited in patent publication US12594236B2, “Method of treating acute exacerbation of schizophrenia with long-acting injectable depot composition” (LABORATORIOS FARMACEUTICOS ROVI, S.A., priority 2021, dated 2026).
Like-named read-outs stand apart in the source and are kept apart here.

Tested on: acute schizophrenia

CCCCCCCCCCCCCCCC(=O)OC1CCCn2c1nc(C)c(CCN1CCC(c3noc4cc(F)ccc34)CC1)c2=O (centres unmarked) [Paliperidone Palmitate]
placebo-adjusted reduction of the PANSS total score (25 mg eq, 13 weeks): −5.1 | placebo-adjusted reduction of the PANSS total score (100 mg eq, 13 weeks): −8.7 | placebo-adjusted reduction of the PANSS total score (150 mg eq, 13 weeks): −9.8

CCCCCCCCCCCC(=O)OCN1C(=O)CCc2ccc(OCCCCN3CCN(c4cccc(Cl)c4Cl)CC3)cc21 [Aripiprazole Lauroxil]
placebo-adjusted reduction of the PANSS total score (441 mg, 12 weeks, oral aripiprazole 3 weeks after randomization): −10.9 | placebo-adjusted reduction of the PANSS total score (882 mg, 12 weeks, oral aripiprazole 3 weeks after randomization): −11.9
